Results taken from patent US7858644B2, “EP4 receptor antagonists” (Asterand UK Limited, priority 2003, dated 2010).

Assays:
human EP3 receptor = molecular target: T1, human EP3 receptor (Homo sapiens, UniProt P43115); assay: Binding ability to human EP3 receptor ([3H]PGE2 displacement); conditions: membranes from cells stably transfected with human EP receptor cDNA; [3H]PGE2 2.5 nM; Cheng-Prusoff from IC50; read-out: pKi EP3 (converted)
T1 construct: expressed in transfected cells
T1 sequence (P43115 1-390): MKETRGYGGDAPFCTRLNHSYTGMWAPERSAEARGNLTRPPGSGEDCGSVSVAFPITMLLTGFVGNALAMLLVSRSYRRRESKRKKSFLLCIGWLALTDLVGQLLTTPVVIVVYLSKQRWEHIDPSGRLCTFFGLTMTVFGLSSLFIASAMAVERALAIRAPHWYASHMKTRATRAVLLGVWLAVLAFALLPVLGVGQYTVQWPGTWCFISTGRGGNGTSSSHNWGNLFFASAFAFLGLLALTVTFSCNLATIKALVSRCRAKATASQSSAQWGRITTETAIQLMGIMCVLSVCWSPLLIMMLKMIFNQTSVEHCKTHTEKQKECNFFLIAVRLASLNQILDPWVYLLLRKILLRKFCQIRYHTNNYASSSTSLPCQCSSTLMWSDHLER
Method: (§1) Membranes were prepared from cells stably transfected with human EP receptor cDNA. In brief, cells were cultured to confluency, scraped from culture flasks, and centrifuged (800 g, 8 minutes, 4° C.). Cells were twice washed in ice cold homogenisation buffer containing 10 mMTris-HCl, 1 mM EDTA. 2Na, 250 mM sucrose, 1 mM PMSF, 0.3 mM indomethacin, pH 7.4, homogenised and re-centrifuged as before. The supernatant was stored on ice and pellets re-homogenised and re-spun. Supernatants were pooled and centrifuged at 40000 g, 10 minutes, 4° C. Resultant membrane pellets were stored at −80° C. until use.
(§2) For assay, membranes expressing human EP4, EP3, EP2 or EP1 receptors were incubated in Millipore (MHVBN45) plates containing assay buffer, radiolabelled [^3H]PGE2 and 0.1 to 10 000 nM concentrations of compounds. Incubations were performed at suitable temperatures and for suitable times to allow equilibrium to be reached. Non-specific binding was determined in the presence of 10 uM PGE2. Bound and free radiolabel was separated by vacuum manifold filtration using appropriate wash buffers, and bound radiolabel was determined by scintillation counting. Constituents of each of the buffers are included in table 1 below.
(§3) This approach follows that set out in Kenakin, T. P., Pharmacologic analysis of drug receptor interaction. Raven Press, New York, 2nd edition.

human EP2 receptor = molecular target: T2, human EP2 receptor (Homo sapiens, UniProt P43116); assay: Binding ability to human EP2 receptor ([3H]PGE2 displacement); conditions: read-out: pKi EP2 (converted)
T2 construct: expressed in transfected cells
Method: as §1, §2, §3

human EP4 receptor = molecular target: T3, human EP4 receptor (Homo sapiens, UniProt P35408); assay: Binding ability to human EP4 receptor ([3H]PGE2 displacement); conditions: read-out: pKi EP4 (converted)
T3 construct: expressed in transfected cells
Method: as §1
Incubations were performed at suitable temperatures and for suitable times to allow equilibrium to be reached. Non-specific binding was determined in the presence of 10 uM PGE2. Bound and free radiolabel was separated by vacuum manifold filtration using appropriate wash buffers, and bound radiolabel was determined by scintillation counting. Constituents of each of the buffers are included in table 1 below.
as §3

T2 sequence (P43116 whole entry): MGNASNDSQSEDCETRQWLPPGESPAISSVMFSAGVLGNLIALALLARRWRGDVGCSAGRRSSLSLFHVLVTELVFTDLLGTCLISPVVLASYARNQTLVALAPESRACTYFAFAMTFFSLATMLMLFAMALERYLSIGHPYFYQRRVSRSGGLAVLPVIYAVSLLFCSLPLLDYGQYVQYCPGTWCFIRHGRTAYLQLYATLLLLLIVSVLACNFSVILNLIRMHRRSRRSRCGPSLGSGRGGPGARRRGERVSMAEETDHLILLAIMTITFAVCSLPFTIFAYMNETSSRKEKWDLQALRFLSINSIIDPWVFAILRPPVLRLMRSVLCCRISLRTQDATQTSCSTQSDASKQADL
T3 sequence (P35408 whole entry): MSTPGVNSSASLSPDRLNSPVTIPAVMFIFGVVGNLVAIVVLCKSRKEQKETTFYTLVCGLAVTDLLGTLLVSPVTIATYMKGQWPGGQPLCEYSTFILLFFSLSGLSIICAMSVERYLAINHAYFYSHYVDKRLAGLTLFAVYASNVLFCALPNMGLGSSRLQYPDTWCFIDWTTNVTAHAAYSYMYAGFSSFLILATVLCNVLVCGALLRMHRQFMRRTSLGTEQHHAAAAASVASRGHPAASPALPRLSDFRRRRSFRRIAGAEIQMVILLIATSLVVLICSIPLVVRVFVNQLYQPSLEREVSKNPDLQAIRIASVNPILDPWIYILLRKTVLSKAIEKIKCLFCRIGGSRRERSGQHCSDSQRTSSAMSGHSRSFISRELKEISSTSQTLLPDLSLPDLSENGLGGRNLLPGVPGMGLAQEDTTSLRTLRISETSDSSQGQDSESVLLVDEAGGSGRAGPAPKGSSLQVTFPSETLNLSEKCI

| SMILES | Ki (human EP3 receptor) [µM] | Ki (human EP2 receptor) [µM] | Ki (human EP4 receptor) [µM] |
| --- | --- | --- | --- |
| Cc1ccccc1S(=O)(=O)NC(=O)c1cc(CN(C)c2ccc(-c3ccc(OC(F)F)cc3)cc2)c(C)o1 [Compound 177, N-(4-{[(4′-Difluoromethoxy-biphenyl-4-yl)-methyl-amino]-methyl}-5-methyl-furan-2-carbonyl)-2-methyl-benzenesulfonamide] | > 10 | > 10 | < 0.0316 |
| Cc1oc(C(=O)NS(=O)(=O)c2ccccc2)cc1COc1ccc(-c2ncccn2)cc1 [Compound 138, N-[5-Methyl-4-(4-pyrimidin-2-yl-phenoxymethyl)-furan-2-carbonyl]-benzenesulphonamide] | > 10 | > 10 | < 3.16 |
| Cc1oc(S(=O)(=O)NC(=O)c2cccnc2)cc1COc1ccc(-c2ccccc2)cc1 [Compound 68, 4-(Biphenyl-4-yloxymethyl)-5-methyl-furan-2-sulphonic acid (pyridine-3-carbonyl)-amide] | > 10 | > 10 | < 1 |
| Cc1noc(C)c1S(=O)(=O)NC(=O)c1cc(CNc2ccc(-c3ccc(OC(F)F)cc3)cc2)c(C)o1 [Compound 174, 3,5-Dimethyl-isoxazole-4-sulphonic acid {4-[(4′-difluoromethoxy-biphenyl-4-ylamino)-methyl]-5-methyl-furan-2-carbonyl}-amide] | > 10 | > 10 | < 0.01 |
| Cc1oc(C(=O)O)cc1COc1ccc(-c2ccccc2C(F)(F)F)cc1 [Compound 102, 5-Methyl-4-(2′-trifluoromethyl-biphenyl-4-yloxymethyl)-furan-2-carboxylic acid] | > 10 | > 3.16 | < 3.16 |
| Cc1oc(-c2nnn[nH]2)cc1COc1ccc(-c2ccccc2)cc1 [Compound 149, 5-[4-(Biphenyl-4-yloxymethyl)-5-methyl-furan-2-yl]-1H-tetrazole] | > 10 | > 10 | < 0.1 |
| O=C(O)c1cc(COc2ccc3oc4ccccc4c3c2)c(C(F)(F)F)o1 [Compound 92, 4-(Dibenzofuran-2-yloxymethyl)-5-trifluoromethyl-furan-2-carboxylic acid] | > 10 | > 10 | < 3.16 |
| COc1ccc(-c2ccc(OCc3cc(CCC(=O)O)oc3C)cc2)cc1 [Compound 39, 3-[4-(4′-Methoxy-biphenyl-4-yloxymethyl)-5-methyl-furan-2-yl]-propionic acid] | > 10 | > 10 | < 0.1 |
| CCOc1ccc(-c2ccc(OCc3cc(C(=O)O)oc3C)cc2)cc1 [Compound 98, 4-(4′-Ethoxy-biphenyl-4-yloxymethyl)-5-methyl-furan-2-carboxylic acid] | > 10 | > 10 | < 0.316 |
| Cc1oc(C(=O)O)cc1COc1ccc(-c2c(F)cccc2F)cc1 [Compound 100, 4-(2′,6′-Difluoro-biphenyl-4-yloxymethyl)-5-methyl-furan-2-carboxylic acid] | > 10 | > 10 | < 3.16 |
| Cc1oc(C(=O)O)cc1COc1ccc2c(c1)oc1ccccc12 [Compound 50, 4-(Dibenzofuran-3-yloxymethyl)-5-methyl-furan-2-carboxylic acid] | > 10 | > 3.16 | < 3.16 |
| COc1ccc(-c2ccc(OCc3cc(C(=O)NS(=O)(=O)c4c(C)noc4C)oc3C)cc2)c(OC)c1 [Compound 142, 3,5-Dimethyl-isoxazole-4-sulphonic acid [4-(2′,4′-dimethoxy-biphenyl-4-yloxymethyl)-5-methyl-furan-2-carbonyl]-amide] | > 10 | > 10 | < 0.1 |
| Cc1noc(C)c1C(=O)NS(=O)(=O)c1cc(COc2ccc(-c3ccccc3)cc2)c(C)o1 [Compound 63, 4-(Biphenyl-4-yloxymethyl)-5-methyl-furan-2-sulphonic acid (3,5-dimethyl-isoxazole-4-carbonyl)-amide] | > 10 | > 10 | < 0.316 |
| Cc1oc(C(=O)O)cc1COc1ccc(-c2ncccn2)cc1 [Compound 137, 5-Methyl-4-(4-pyrimidin-2-yl-phenoxymethyl)-furan-2-carboxylic acid] | > 10 | > 10 | < 10 |
| CSc1ccc(-c2ccc(OCc3cc(C(=O)O)oc3C)cc2)cc1 [Compound 111, 5-Methyl-4-(4′-methylsulphanyl-biphenyl-4-yloxymethyl)-furan-2-carboxylic acid] | > 10 | > 10 | < 3.16 |
| Cc1oc(C(=O)O)cc1COc1cccc(-c2cccc(C(F)(F)F)c2)c1 [Compound 109, 5-Methyl-4-(3′-trifluoromethyl-biphenyl-3-yloxymethyl)-furan-2-carboxylic acid] | > 10 | > 10 | < 3.16 |
| COc1ccc(-c2ccc(NCc3cc(C(=O)NS(=O)(=O)c4ccccc4C)oc3C)cc2)nc1 [Compound 167, N-(4-{[4-(5-Methoxy-pyridin-2-yl)-phenylamino]-methyl}-5-methyl-furan-2-carbonyl)-2-methyl-benzenesulphonamide] | > 10 | > 10 | < 0.316 |
| Cc1oc(C(=O)O)cc1COc1ccc(-c2ccc(F)cc2)cc1 [Compound 118, 4-(4′-Fluoro-biphenyl-4-yloxymethyl)-5-methyl-furan-2-carboxylic acid] | > 10 | > 10 | < 1 |
| COc1ccc(-c2ccc(OCc3cc(C(=O)O)oc3C)cc2)c(OC)c1 [Compound 140, 4-(2′,4′-Dimethoxy-biphenyl-4-yloxymethyl)-5-methyl-furan-2-carboxylic acid] | > 10 | > 10 | < 3.16 |
| COc1ccc(-c2ccc(OCCc3cc(C(=O)O)oc3C)cc2)cc1 [Compound 73, 4-[2-(4′-Methoxy-biphenyl-4-yloxy)-ethyl]-5-methyl-furan-2-carboxylic acid] | > 10 | > 10 | < 3.16 |
| COc1ccc(-c2cccc(OCc3cc(C(=O)O)oc3C)c2)cc1OC [Compound 108, 4-(3′,4′-Dimethoxy-biphenyl-3-yloxymethyl)-5-methyl-furan-2-carboxylic acid] | > 10 | > 10 | < 3.16 |
| COc1ccc(-c2ccc(OCc3cc(C(=O)O)oc3C)cc2)c(C)c1 [Compound 144, 4-(4′-Methoxy-2′-methyl-biphenyl-4-yloxymethyl)-5-methyl-furan-2-carboxylic acid] | > 10 | > 10 | < 1 |
| Cc1oc(C(=O)O)cc1COc1ccc(-c2ccc(N(C)C)cc2)cc1 [Compound 113, 4-(4′-Dimethylamino-biphenyl-4-yloxymethyl)-5-methyl-furan-2-carboxylic acid] | > 10 | > 10 | < 10 |
| Cc1oc(C(=O)O)cc1COc1ccc(-c2cccc(F)c2)cc1 [Compound 104, 4-(3′-Fluoro-biphenyl-4-yloxymethyl)-5-methyl-furan-2-carboxylic acid] | > 10 | > 3.16 | < 1 |
| COc1ccc(-c2ccc(OCc3cc(C(=O)O)oc3C(F)(F)F)cc2)cc1 [Compound 94, 4-(4′-Methoxy-biphenyl-4-yloxymethyl)-5-trifluoromethyl-furan-2-carboxylic acid] | > 10 | > 10 | < 0.316 |
